Assay results reported in US20240262842A1, “SMALL MOLECULE INHIBITORS OF KRAS G12C MUTANT” (Merck Sharp & Dohme LLC, priority 2021, published 2024).

Target: biotinylated KRAS G12C protein (GMP-PNP loaded) and GST-tagged Ras binding domain of c-RAF (Homo sapiens, UniProt P01116, C118S/C51S/C80L/G12C)
Assay: RAS:RAF-RBD binding assay (TR-FRET)
Conditions: 30-minute incubation of compound with KRAS G12C before RAF-RBD; Table 4; read-out: IC50

biotinylated KRAS G12C protein (GMP-PNP loaded) and GST-tagged Ras binding domain of c-RAF, sequence (P01116 with tags, fused parts or gaps isoform P01116-2 G12C/C51S/C80L/C118S): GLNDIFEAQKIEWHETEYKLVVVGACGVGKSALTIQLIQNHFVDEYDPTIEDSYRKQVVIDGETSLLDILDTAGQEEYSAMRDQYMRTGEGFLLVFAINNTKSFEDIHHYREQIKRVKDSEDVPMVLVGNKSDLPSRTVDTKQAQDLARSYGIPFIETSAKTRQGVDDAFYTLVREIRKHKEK

Row | Structure (SMILES) | IC50
1 | Cc1nc2c3c(c(C(F)(F)F)cc2n1C)-c1cccn2c(C(=O)c4cc(F)c(NC(=O)C=CCN5CC6CC5CO6)c(F)c4)cc(c12)CCO3 [Example 257, mono(2-(4-((E)-4-((1S,4S)-2-oxa-5-aza-bicyclo-[2.2.1]heptan-5-ium-5-yl)but-2-enamido)-3,5-difluorobenzoyl)-9,10-dimethyl-7-(trifluorometh-yl)-13,14-dihydro-9H-imidazo[4″,5″:5′,6′]benzo-[1′,2′:2,3]oxocino[4,5,6-hi]indolizin-11-ium) mono(2,2,2-trifluoro-acetate)] | 9.69 nM
2 | COCc1nc2c3c(c(OC)cc2n1C)-c1cccn2c(C(=O)c4cc(F)c(NC(=O)/C=C/CNC(C)(C)C)c(F)c4)cc(c12)CCN3C [Example 288, mono((E)-2-(4-(4-(tert-butylammonio)but-2-enamido)-3,5-difluoro-benzoyl)-7-methoxy-10-(methoxymethyl)-9,12-dimethyl-9,12,13,14-tetra-hydroimidazo[4″,5″:5′,6′]-benzo[1′,2′:2,3]azocino-[4,5,6-hi]indolizin-11-ium) mono-(2,2,2-trifluoroacetate)] | 8.15 nM
3 | Cc1nc2c3c(c(C(F)(F)F)cc2n1C)-c1cccn2c(C(=O)c4cc(F)c(NC(=O)/C=C/CNC5CCOC5)c(F)c4)cc(c12)CCO3 (single isomer, unassigned) [Example 269, (E)-N-(4-(9,10-dimethyl-7-(trifluoromethyl)-13,14-dihydro-9H-imidazo-[4″,5″:5′,6′]benzo[1′,2′: 2,3]oxocino[4,5,6-hi]-indolizine-2-carbonyl)-2,6-difluorophenyl)-4-((tetrahydrofuran-3-yl)-amino)but-2-enamide] | 9.82 nM
4 | Cc1nc2c3c(c(C(F)(F)F)cc2n1C)-c1cccn2c(C(=O)c4cc(F)c(NC(=O)/C=C/CN5CCC5CC(C)(C)O)c(F)c4)cc(c12)CCN3C (single isomer, unassigned) [Example 298, (E)-1-(4-((2,6-difluoro-4-(9,10,12-trimethyl-7-(trifluoromethyl)-9,12,13,14-tetrahydro-imidazo[4″,5″:5′,6′]benzo-[1′,2′:2,3]azocino[4,5,6-hi]indolizine-2-carbonyl)-phenyl)amino)-4-oxobut-2-en-1-yl)-2-(2-hydroxy-2-methylpropyl)azetidin-1-ium 2,2,2-trifluoro-acetate] | 41.6 nM
5 | COCc1nc2c3c(c(OC)cc2n1C)-c1cccn2c(C(=O)c4cc(F)c(NC(=O)/C=C/[C@@H]5C[C@@H](F)CN5)c(F)c4)cc(c12)CCN3C (atropisomer, axis not shown) [Example 293, (E)-N-(2,6-difluoro-4-(7-methoxy-10-(methoxymethyl)-9,12-dimethyl-9,12,13,14-tetrahydroimidazo[4″,5″:5′,6′]benzo[1′,2′:2,3]azocino[4,5,6-hi]indolizine-2-carbonyl)phenyl)-3-((2S,4R)-4-fluoropyrrolidin-2-yl)acrylamide] | 16 nM
6 | Cc1nc2c3c(c(C(F)(F)F)cc2n1C)-c1cccn2c(C(=O)c4cc(F)c(NC(=O)/C=C/CNC5CCOC5)c(F)c4)cc(c12)CCO3 (single isomer, unassigned) [Example 270, (E)-N-(4-(9,10-dimethyl-7-(trifluoromethyl)-13,14-dihydro-9H-imidazo-[4″,5″:5′,6′]benzo[1′,2′: 2,3]oxocino[4,5,6-hi]-indolizine-2-carbonyl)-2,6-difluorophenyl)-4-((tetrahydrofuran-3-yl)-amino)but-2-enamide] | 12 nM
7 | Cc1nc2c3c(c(C(F)(F)F)cc2n1C)-c1cccn2c(C(=O)c4cc(F)c(NC(=O)/C=C/CN[C@H]5CCCC[C@H]5O)c(F)c4)cc(c12)CCO3 [Example 265] | 12.3 nM
8 | Cc1nc2c3c(c(C(F)(F)F)cc2n1C)-c1cccn2c(C(=O)c4cc(F)c(NC(=O)/C(F)=C/CNC5CC6(COC6)C5)c(F)c4)cc(c12)CCO3 [Example 297, (Z)-4-((2-oxaspiro[3.3]-heptan-6-yl)amino)-N-(4-(9,10-dimethyl-7-(trifluoromethyl)-13,14-dihydro-9H-imidazo-[4″,5″:5′,6′]benzo[1′,2′: 2,3]oxocino[4,5,6-hi]-indolizine-2-carbonyl)-2,6-difluorophenyl)-2-fluorobut-2-enamide] | 26.7 nM
9 | Cc1nc2c3c(c(C(F)(F)F)cc2n1C)-c1cccn2c(C(=O)c4cc(F)c(NC(=O)/C(F)=C/CNCC5(CO)CC5)c(F)c4)cc(c12)CCO3 [Example 295, mono((Z)-2-(3,5-difluoro-4-(2-fluoro-4-(((1-(hydroxymethyl)cyclo-propyl)methyl)ammonio)-but-2-enamido)benzoyl)-9,10-dimethyl-7-(trifluoro-methyl)-13,14-dihydro-9H-imidazo[4″,5″:5′,6′]-benzo[1′,2′:2,3]oxocino-[4,5,6-hi]indolizin-11-ium) mono(2,2,2-trifluoro-acetate)] | 25.3 nM
10 | CN1CCc2cc(C(=O)c3cc(F)c(NC(=O)/C=C/CNC4(C)COC4)c(F)c3)n3cccc(c23)-c2c(C(F)(F)F)cc3c(cnn3C)c21 [Example 283, (E)-N-(4-(9,12-dimethyl-7-(trifluoromethyl)-9,12,13,14-tetrahydroindolizino[8′,1′:4,5,6]azocino[2,3-e]indazole-2-carbonyl)-2,6-difluorophenyl)-4-((3-methyloxetan-3-yl)amino)but-2-enamide] | 64.7 nM
11 | COCc1nc2c3c(c(OC)cc2n1C)-c1cccn2c(C(=O)c4cc(F)c(NC(=O)/C(F)=C/CNC5(C)CC5)c(F)c4)cc(c12)CCN3C [Example 286, (Z)-N-(2,6-difluoro-4-(7-methoxy-10-(methoxymethyl)-9,12-dimethyl-9,12,13,14-tetrahydroimidazo[4″,5″:5′,6′]benzo[1′,2′:2,3]azocino[4,5,6-hi]indolizine-2-carbonyl)phenyl)-2-fluoro-4-((1-methylcyclopropyl)amino)but-2-enamide] | 92.8 nM
12 | Cc1nc2c3c(c(C(F)(F)F)cc2n1C)-c1cccn2c(C(=O)c4cc(F)c(NC(=O)/C=C/CN5CC6C(CO)C6C5)c(F)c4)cc(c12)CCO3 (single isomer, unassigned) [Example 278, (E)-3-(4-((4-(9,10-dimeth-yl-7-(trifluoromethyl)-13,14-dihydro-9H-imidazo-[4″,5″:5′,6′]-benzo[1′,2′:2,3]oxocino-[4,5,6-hi]indolizine-2-carbonyl)-2,6-difluoro-phenyl)amino)-4-oxobut-2-en-1-yl)-6-(hydroxy-methyl)-3-azabicyclo-[3.1.0]hexan-3-ium 2,2,2-trifluoroacetate] | 44.3 nM
13 | CO[C@H]1CCCC[C@H]1NC/C=C/C(=O)Nc1c(F)cc(C(=O)c2cc3c4c(cccn24)-c2c(C(F)(F)F)cc4c(nc(C)n4C)c2OCC3)cc1F [Example 268, (E)-N-(4-(9,10-dimethyl-7-(trifluoromethyl)-13,14-dihydro-9H-imidazo-[4″,5″:5′,6′]benzo[1′,2′: 2,3]oxocino[4,5,6-hi]-indolizine-2-carbonyl)-2,6-difluorophenyl)-4-(((1R,2S)-2-methoxy-cyclohexyl)amino)but-2-enamide] | 12.8 nM

Same assay, conditions: IC50, 30-minute incubation of compound with KRAS G12C before RAF-RBD; Table 4

Row | Structure (SMILES) | IC50
14 | CO[C@H]1CC[C@H](NC/C=C/C(=O)Nc2ccc(C(=O)c3cn4c5c(cccc35)-c3c(C(F)(F)F)cc5c(nc(C)n5C)c3OCC4)cc2)CC1 [Example 263, mono(2-(4-((E)-4-(((1r, 4r)-4-methoxycyclohexyl)-ammonio)but-2-enamido)-benzoyl)-8,9-dimethyl-6-(trifluoromethyl)-12,13-dihydro-8H-imidazo-[4″,5″:3′,4′]benzo[1′,2′: 7,8][1,4]oxazocino[6,5,4-hi]indol-10-ium) mono-(2,2,2-trifluoroacetate)] | 9.25 nM
